Data reported in US20240246937A1 (MERCK SHARP & DOHME LLC, priority 2021, published 2024).

Target: recombinant IL4I1 (Homo sapiens (Human), UniProt Q96RQ9)
Assay: IL4I1 Enzymatic Assay (Amplex Red/HRP coupled fluorescence detection of H2O2)
Type: biochemical
Conditions: 240 min; recombinant IL4I1, four-hour pre-incubation with compound
How it was run: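 Ten-point, 1:3 compound titrations were fitted by four-parameter sigmoidal regression to give EC50. Resorufin fluorescence (544/590 nm) from Amplex Red/HRP-coupled H2O2 detection was read 120 min after adding 1 mM each aromatic amino acid to 1 nM IL4I1, following a 4 h compound pre-incubation in pH 7.0 Hepes buffer.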

Chain of recombinant IL4I1 (Q96RQ9 22-567): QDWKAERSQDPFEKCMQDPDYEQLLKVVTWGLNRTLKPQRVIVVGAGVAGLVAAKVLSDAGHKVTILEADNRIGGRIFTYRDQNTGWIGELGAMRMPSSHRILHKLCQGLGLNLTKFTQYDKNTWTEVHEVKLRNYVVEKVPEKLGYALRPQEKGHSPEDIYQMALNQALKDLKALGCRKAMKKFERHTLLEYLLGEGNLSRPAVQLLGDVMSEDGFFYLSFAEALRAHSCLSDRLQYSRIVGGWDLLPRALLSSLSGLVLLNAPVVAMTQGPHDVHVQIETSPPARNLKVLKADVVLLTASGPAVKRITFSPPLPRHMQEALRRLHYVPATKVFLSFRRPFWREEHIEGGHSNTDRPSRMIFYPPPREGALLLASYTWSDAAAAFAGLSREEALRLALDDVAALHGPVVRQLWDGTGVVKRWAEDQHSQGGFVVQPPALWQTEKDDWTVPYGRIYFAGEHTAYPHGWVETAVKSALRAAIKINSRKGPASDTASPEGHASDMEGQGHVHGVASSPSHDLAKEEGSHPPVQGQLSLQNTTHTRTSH

Row | Structure (SMILES) | EC50
1 | O=C1C(=O)N(C2CCCC2)CCN1Cc1ccc(-c2cncs2)nn1 [Example 11, 1-cyclopentyl-4-((6-(thiazol-5-yl)pyridazin-3-yl)methyl)piperazine-2,3-dione] | 16 nM
2 | O=C1C(=O)N([C@H]2C[C@H]3C[C@H]3C2)CCN1Cc1cnc(-c2ccccc2)cn1 [Example 129, 1-((cis)-bicyclo[3.1.0]hexan-3-yl)-4-((5-phenylpyrazin-2-yl)methyl)piperazine-2,3-dione] | 6 nM
3 | O=C1C(=O)N(C2(CF)CC2)CCN1Cc1ccc(-c2ccccc2F)nn1 [Example 195, 1-(1-(fluoromethyl)cyclopropyl)-4-((6-(2-fluorophenyl)pyridazin-3-yl)methyl)piperazine-2,3-dione] | 48 nM
4 | O=C1C(=O)N(C2CCCC2)CCN1Cc1cc2ccccc2[nH]c1=O [Example 354, 1-cyclopentyl-4-((2-oxo-1,2-dihydroquinolin-3-yl)methyl)piperazine-2,3-dione] | 20 nM
5 | O=c1c(=O)n(C23CC(C2)C3)ccn1Cc1cc(-c2nccs2)on1 [Example 187, 1-(bicyclo[1.1.1]pentan-1-yl)-4-((5-(thiazol-2-yl)isoxazol-3-yl)methyl)-1,4-dihydropyrazine-2,3-dione] | 8 nM
6 | O=c1c(=O)n([C@H]2C[C@H]3C[C@H]3C2)ccn1Cc1cc(-c2ccccn2)on1 [Example 375, 1-((cis)-bicyclo[3.1.0]hexan-3-yl)-4-((5-(pyridin-2-yl)isoxazol-3-yl)methyl)-1,4-dihydropyrazine-2,3-dione] | 6 nM
7 | O=C1C(=O)N(C2CCC2)C2CCCC2N1Cc1ccc(-c2ccccc2)nn1 (single isomer, unassigned) [Example 435B, (S,R or S,R)-1-cyclobutyl-4-((6-phenylpyridazin-3-yl)methyl)hexahydro-1H-cyclopenta[b]pyrazine-2,3-dione] | 76 nM
8 | O=C1C(=O)N(C2CCC2)CCN1Cc1ccc(-c2cccc(F)c2)nn1 [Example 20, 1-cyclobutyl-4-((6-(3-fluorophenyl)pyridazin-3-yl)methyl)piperazine-2,3-dione] | 5 nM
9 | O=c1c(=O)n(C2CCC2)ccn1Cc1ccc(-n2nccn2)cn1 [Example 397, 1-((5-(2H-1,2,3-triazol-2-yl)pyridin-2-yl)methyl)-4-cyclobutyl-1,4-dihydropyrazine-2,3-dione] | 11 nM
10 | O=c1c(=O)n(C2CCC2)ccn1Cc1cc(-c2cccc(F)c2)on1 [Example 54, 1-cyclobutyl-4-((5-(3-fluorophenyl)isoxazol-3-yl)methyl)-1,4-dihydropyrazine-2,3-dione] | 2 nM
11 | CC1(n2ccn(Cc3cc(-c4ccccc4)no3)c(=O)c2=O)CCC1 [Example 181, 1-(1-methylcyclobutyl)-4-((3-phenylisoxazol-5-yl)methyl)-1,4-dihydropyrazine-2,3-dione] | 10 nM
12 | O=C1C(=O)N(C2CCC2)CCN1Cc1ncc(-c2ccccc2F)s1 [Example 426, 1-cyclobutyl-4-((5-(2-fluorophenyl)thiazol-2-yl)methyl)piperazine-2,3-dione] | 5 nM
13 | O=C1C(=O)N(C23CC(C2)C3)CCN1Cc1nnc(-c2ccccc2Cl)s1 [Example 179, 1-(bicyclo[1.1.1]pentan-1-yl)-4-((5-(2-chlorophenyl)-1,3,4-thiadiazol-2-yl)methyl)piperazine-2,3-dione] | 13 nM
14 | O=C1C(=O)N(C23CC(C2)C3)CCN1Cc1ccc(-n2ccnn2)nc1 [Example 117, 1-((6-(1H-1,2,3-triazol-1-yl)pyridin-3-yl)methyl)-4-(bicyclo[1.1.1]pentan-1-yl)piperazine-2,3-dione] | 14 nM
15 | O=c1c(=O)n(C2CCC2)ccn1Cc1ccc(-c2cccc(F)c2)nn1 [Example 63, 1-cyclobutyl-4-((6-(3-fluorophenyl)pyridazin-3-yl)methyl)-1,4-dihydropyrazine-2,3-dione] | 3 nM
16 | N#CC12CC(N3CCN(Cc4nnc(-c5ccccc5)s4)C(=O)C3=O)(C1)C2 [Example 295, 3-(2,3-dioxo-4-((5-phenyl-1,3,4-thiadiazol-2-yl)methyl)piperazin-1-yl)bicyclo[1.1.1]pentane-1-carbonitrile] | 53 nM
17 | O=c1c(=O)n(C2(CF)CC2)ccn1Cc1ccc(-n2ccnn2)nc1 [Example 235, 1-((6-(1H-1,2,3-triazol-1-yl)pyridin-3-yl)methyl)-4-(1-(fluoromethyl)cyclopropyl)-1,4-dihydropyrazine-2,3-dione] | 18 nM
18 | CC1(N2CCN(Cc3cc(-c4ccc(F)cc4)no3)C(=O)C2=O)CCC1 [Example 188, 1-((3-(4-fluorophenyl)isoxazol-5-yl)methyl)-4-(1-methylcyclobutyl)piperazine-2,3-dione] | 10 nM
19 | O=c1c(=O)n(C23CC(C2)C3)ccn1Cc1cc(-c2ccccc2F)on1 [Example 77, 1-(bicyclo[1.1.1]pentan-1-yl)-4-((5-(2-fluorophenyl)isoxazol-3-yl)methyl)-1,4-dihydropyrazine-2,3-dione] | 3 nM
20 | O=c1c(=O)n(C2CCCC2)ccn1Cc1ccc(-c2cccc(F)c2)nn1 [Example 59, 1-cyclopentyl-4-((6-(3-fluorophenyl)pyridazin-3-yl)methyl)-1,4-dihydropyrazine-2,3-dione] | 5 nM

Row | Structure (SMILES) | EC50
21 | O=C1C(=O)N(C2CCCC2)CCN1Cc1cnc(-c2ccccc2)nn1 [Example 103, 1-cyclopentyl-4-((3-phenyl-1,2,4-triazin-6-yl)methyl)piperazine-2,3-dione] | 11 nM
22 | O=C1C(=O)N(C2CCCC2)CCN1Cc1ccc(-c2nccs2)nn1 [Example 362, 1-cyclopentyl-4-((6-(thiazol-2-yl)pyridazin-3-yl)methyl)piperazine-2,3-dione] | 22 nM
23 | O=c1c(=O)n([C@H]2C[C@@H](c3ccccc3)C2)ccn1Cc1nnc(-c2ccccc2)s1 [Example 48, 1-((5-phenyl-1,3,4-thiadiazol-2-yl)methyl)-4-((cis)-3-phenylcyclobutyl)-1,4-dihydropyrazine-2,3-dione] | 2 nM
24 | O=c1c(=O)n(C2CCC2)ccn1Cc1cc(-c2ccccc2)no1 [Example 151, 1-cyclobutyl-4-((3-phenylisoxazol-5-yl)methyl)-1,4-dihydropyrazine-2,3-dione] | 1 nM
25 | O=C1C(=O)N(C2CCCC2)CCN1Cc1ccc2cc[nH]c(=O)c2c1 [Example 272, 1-cyclopentyl-4-((1-oxo-1,2-dihydroisoquinolin-7-yl)methyl)piperazine-2,3-dione] | 35 nM
26 | O=c1c(=O)n(C2CCCC2)ccn1Cc1cnc(-c2ccccc2)cn1 [Example 126, 1-cyclopentyl-4-((5-phenylpyrazin-2-yl)methyl)-1,4-dihydropyrazine-2,3-dione] | 3 nM
27 | O=c1c(=O)n(C23CC(F)(C2)C3)ccn1Cc1ccc(-n2cccn2)cn1 [Example 219, 1-((5-(1H-pyrazol-1-yl)pyridin-2-yl)methyl)-4-(3-fluorobicyclo[1.1.1]pentan-1-yl)-1,4-dihydropyrazine-2,3-dione] | 59 nM
28 | O=C1C(=O)N(C23CC(F)(C2)C3)CCN1Cc1ccc(-c2ccccc2F)nn1 [Example 228, 1-(3-fluorobicyclo[1.1.1]pentan-1-yl)-4-((6-(2-fluorophenyl)pyridazin-3-yl)methyl)piperazine-2,3-dione] | 23 nM
29 | O=C1C(=O)N(C23CC(F)(C2)C3)CCN1Cc1ccc(-n2ccnn2)cn1 [Example 263, 1-((5-(1H-1,2,3-triazol-1-yl)pyridin-2-yl)methyl)-4-(3-fluorobicyclo[1.1.1]pentan-1-yl)piperazine-2,3-dione] | 995 nM
30 | O=c1c(=O)n(C2CCC2)ccn1Cc1ccc(-n2ccnc2)nn1 [Example 330, 1-((6-(1H-imidazol-1-yl)pyridazin-3-yl)methyl)-4-cyclobutyl-1,4-dihydropyrazine-2,3-dione] | 16 nM
31 | O=C1C(=O)N(C2CCCC2)CCN1Cc1cnc(-c2ccccc2)c(F)c1 [Example 102, 1-cyclopentyl-4-((5-fluoro-6-phenylpyridin-3-yl)methyl)piperazine-2,3-dione] | 14 nM
32 | CC1CN(Cc2ccc(-n3nccn3)cn2)C(=O)C(=O)N1C1CCC1 (stereo not drawn) [Example 178, 1-((5-(2H-1,2,3-triazol-2-yl)pyridin-2-yl)methyl)-4-cyclobutyl-5-methylpiperazine-2,3-dione] | 52 nM
33 | O=c1c(=O)n(C2(CF)CC2)ccn1Cc1ccc(-n2cccn2)cn1 [Example 218, 1-((5-(1H-pyrazol-1-yl)pyridin-2-yl)methyl)-4-(1-(fluoromethyl)cyclopropyl)-1,4-dihydropyrazine-2,3-dione] | 56 nM
34 | N#CC1(n2ccn(Cc3cn(-c4ccccn4)nn3)c(=O)c2=O)CC1 [Example 258, 1-(2,3-dioxo-4-((1-(pyridin-2-yl)-1H-1,2,3-triazol-4-yl)methyl)-3,4-dihydropyrazin-1(2H)-yl)cyclopropane-1-carbonitrile] | 78 nM
35 | O=c1c(=O)n(C2CCC2)ccn1Cc1ccc(-c2ccccc2F)nn1 [Example 49, 1-cyclobutyl-4-((6-(2-fluorophenyl)pyridazin-3-yl)methyl)-1,4-dihydropyrazine-2,3-dione] | 3 nM
36 | O=c1c(=O)n([C@H]2C[C@H]3C[C@H]3C2)ccn1Cc1cnc(-c2ccccc2)c(F)c1 [Example 128, 1-((cis)-bicyclo[3.1.0]hexan-3-yl)-4-((5-fluoro-6-phenylpyridin-3-yl)methyl)-1,4-dihydropyrazine-2,3-dione] | 2 nM
37 | O=C1C(=O)N(C2CCC2)CCN1Cc1ncc(-c2cccc(F)c2)s1 [Example 425, 1-cyclobutyl-4-((5-(3-fluorophenyl)thiazol-2-yl)methyl)piperazine-2,3-dione] | 8 nM
38 | O=C1C(=O)N(C2CCCC2)CCN1Cc1cnc(-c2ccccc2)cn1 [Example 271, 1-cyclopentyl-4-((5-phenylpyrazin-2-yl)methyl)piperazine-2,3-dione] | 14 nM
39 | O=c1c(=O)n(C2CCCC2)ccn1Cc1cc(-c2ccc(F)cc2)no1 [Example 164, 1-cyclopentyl-4-((3-(4-fluorophenyl)isoxazol-5-yl)methyl)-1,4-dihydropyrazine-2,3-dione] | 1 nM
